In patent publication US20230114728A1 (Venatorx Pharmaceuticals, Inc., priority 2019, published 2023):

How the values were obtained:
E. coli K12 PBP1b = target: T1, E. coli K12 PBP1b (Escherichia coli, UniProt P02919); assay: Radioligand competition binding assay with 14C-labeled boronic acid probe, E. coli PBP1b; settings: PBP1a/PBP1b at 0.1 μM, Compound A at 20 μM; E. coli PBP1b; read-out: EC50 (the concentration of inhibitor required to reduce binding of Compound A by 50%)
T1 construct: made in house
Excerpt: (§1) Example II: Experimental Method to Assess Binding to Penicillin-Binding Proteins: Radioligand Competition Binding Assay
(§2) To determine the ability of boronic acid-based test PBP inhibitors to bind Penicillin Binding Proteins (PBPs), a radio-labelled boronic acid PBP inhibitor:
was used in competition binding assays to determine boronic acid PBP inhibitor binding to PBP1a or PBP1b from Escherichia coli. PBP1a and PBP1b were purified as described previously (Bertsche, U.; et al., J Biol. Chem. 2005, 280 (45), 38096-38101; Born, P.; et al., J Biol. Chem. 2006. 281 (37), 26985-26993). To establish assay conditions for competition binding, an enzyme titration/saturation binding experiment was performed. Saturation binding was performed in a buffer comprised of 20 mM Tris (pH 7.5), 500 mM NaCl and 0.1% (v/v) TritonX-100, with PBP1a/PBP1b at a final concentration of 0.1 μM and Compound A at final concentrations ranging from 0-100 μM. Mixtures were incubated for 60 minutes, then applied to Zeba Spin Desalting columns or plates (ThermoFisher Scientific) and centrifuged at 1000-1500×g for 2 minutes. The flow through, containing PBP bound with Compound A, was recovered and 100 μL mixed with 5 mL of UltimaGold liquid scintillation cocktail (Perkin Elmer), and the radioactivity counted using a Beckman Coulter LS 6500 Multipurpose scintillation counter. PBP binding of Compound A approached saturation at 20 μM of ^14C-labeled probe. The competition binding assay was validated using the beta-lactam ampicillin, with Compound A at a final concentration of 20 μM, PBP1a/PBP1b at a final concentration of 0.1 μM. PBP1a/PBP1b was incubated with ampicillin in a 96-well microplate for 60 minutes, then Compound A was added and the mixtures incubated for an additional 60 minutes. The mixtures were then applied to Zeba Spin desalting plates and centrifuged at 1000×g for 2 minutes. The flow through was recovered and 100 μl mixed with 5 ml of UltimaGold liquid scintillation cocktail and the radioactivity counted. […] Binding assays with boronic acid PBP inhibitors were performed in an identical fashion. […]

E. coli K12 PBP1a = target: T2, E. coli K12 PBP1a (Escherichia coli, UniProt P02918); assay: Radioligand competition binding assay with 14C-labeled boronic acid probe, E. coli PBP1a; settings: PBP1a/PBP1b at 0.1 μM, Compound A at 20 μM, read-out: EC50 (the concentration of inhibitor required to reduce binding of Compound A by 50%)
T2 construct: made in house
Excerpt: as §1, §2
was used in competition binding assays to determine boronic acid PBP inhibitor binding to PBP1a or PBP1b from Escherichia coli. PBP1a and PBP1b were purified as described previously (Bertsche, U.; et al., J Biol. Chem. 2005, 280 (45), 38096-38101; Born, P.; et al., J Biol. Chem. 2006. 281 (37), 26985-26993). To establish assay conditions for competition binding, an enzyme titration/saturation binding experiment was performed. Saturation binding was performed in a buffer comprised of 20 mM Tris (pH 7.5), 500 mM NaCl and 0.1% (v/v) TritonX-100, with PBP1a/PBP1b at a final concentration of 0.1 μM and Compound A at final concentrations ranging from 0-100 μM. […] The flow through, containing PBP bound with Compound A, was recovered and 100 μL mixed with 5 mL of UltimaGold liquid scintillation cocktail (Perkin Elmer), and the radioactivity counted using a Beckman Coulter LS 6500 Multipurpose scintillation counter. […] The flow through was recovered and 100 μl mixed with 5 ml of UltimaGold liquid scintillation cocktail and the radioactivity counted. […]

T1 sequence (P02919 whole entry): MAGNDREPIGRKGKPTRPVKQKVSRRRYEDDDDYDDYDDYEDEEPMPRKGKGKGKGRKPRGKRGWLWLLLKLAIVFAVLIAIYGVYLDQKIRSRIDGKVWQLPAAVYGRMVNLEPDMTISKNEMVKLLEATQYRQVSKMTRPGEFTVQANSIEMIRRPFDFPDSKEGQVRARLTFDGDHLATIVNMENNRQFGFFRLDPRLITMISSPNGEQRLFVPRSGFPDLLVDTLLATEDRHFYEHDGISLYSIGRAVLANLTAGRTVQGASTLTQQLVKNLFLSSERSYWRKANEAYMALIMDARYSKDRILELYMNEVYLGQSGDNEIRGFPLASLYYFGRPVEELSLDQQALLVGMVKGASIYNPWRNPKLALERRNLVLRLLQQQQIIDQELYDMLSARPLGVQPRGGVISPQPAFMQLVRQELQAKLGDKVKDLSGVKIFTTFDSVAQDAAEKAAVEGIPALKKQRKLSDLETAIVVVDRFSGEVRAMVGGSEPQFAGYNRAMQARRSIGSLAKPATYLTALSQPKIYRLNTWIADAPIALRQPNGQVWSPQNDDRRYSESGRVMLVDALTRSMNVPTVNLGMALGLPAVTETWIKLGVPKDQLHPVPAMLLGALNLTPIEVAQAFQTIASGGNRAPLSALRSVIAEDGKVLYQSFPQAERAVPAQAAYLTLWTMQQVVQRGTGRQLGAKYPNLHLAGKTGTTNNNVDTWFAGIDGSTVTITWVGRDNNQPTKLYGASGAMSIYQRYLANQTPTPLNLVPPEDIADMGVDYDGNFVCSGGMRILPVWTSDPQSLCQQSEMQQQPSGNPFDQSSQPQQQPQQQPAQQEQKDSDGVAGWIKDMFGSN
T2 sequence (P02918 whole entry): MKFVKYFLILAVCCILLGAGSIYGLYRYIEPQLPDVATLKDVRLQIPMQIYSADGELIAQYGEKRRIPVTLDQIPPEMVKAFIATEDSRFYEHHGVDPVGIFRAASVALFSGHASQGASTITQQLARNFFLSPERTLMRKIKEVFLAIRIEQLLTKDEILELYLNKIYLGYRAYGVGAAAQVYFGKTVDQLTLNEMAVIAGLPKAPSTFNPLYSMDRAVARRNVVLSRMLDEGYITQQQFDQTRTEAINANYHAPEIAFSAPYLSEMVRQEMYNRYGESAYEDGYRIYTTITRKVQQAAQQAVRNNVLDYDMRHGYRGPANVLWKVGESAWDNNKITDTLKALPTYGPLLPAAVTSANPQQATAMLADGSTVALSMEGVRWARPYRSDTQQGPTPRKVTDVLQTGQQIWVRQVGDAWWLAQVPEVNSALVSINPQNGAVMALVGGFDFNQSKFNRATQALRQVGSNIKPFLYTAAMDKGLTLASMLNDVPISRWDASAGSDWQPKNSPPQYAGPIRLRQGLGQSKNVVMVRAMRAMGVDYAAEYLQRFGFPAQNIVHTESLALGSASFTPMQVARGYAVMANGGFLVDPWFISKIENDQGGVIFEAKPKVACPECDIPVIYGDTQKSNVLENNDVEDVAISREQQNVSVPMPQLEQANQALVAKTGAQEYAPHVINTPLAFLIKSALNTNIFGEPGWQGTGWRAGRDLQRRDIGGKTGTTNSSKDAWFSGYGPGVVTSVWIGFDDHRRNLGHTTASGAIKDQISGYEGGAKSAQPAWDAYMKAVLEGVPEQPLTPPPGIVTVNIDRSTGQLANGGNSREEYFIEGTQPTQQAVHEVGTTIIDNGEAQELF

CC1(C)S[C@@H]2[C@H](NC(=O)[C@H](N)c3ccccc3)C(=O)N2[C@H]1C(=O)O [ampicillin, reference compound]
EC50 (E. coli K12 PBP1b): < 500 nM | EC50 (E. coli K12 PBP1a): < 500 nM
